Literature values in US5284873A (priority 1991, dated 1994).

System: prostate
Details: treatment of the α-receptors with antagonists

CC(COc1ccccc1)N(CCCl)Cc1ccccc1 (centres unmarked) [phenoxybenzamine]
improvement in prostate patients: effective improvement

COc1cc2nc(N3CCN(C(=O)c4ccco4)CC3)nc(N)c2cc1OC [prazosin]
improvement in prostate patients: effective improvement
